Laboratory results taken from patent publication US20070276025A1, “Indirubin-Type Compounds, Compositions, and Methods for Their Use” (priority 2003, published 2007).
pEC50, pIC50: −log10 of the molar value. Like-named read-outs stand apart in the source and are kept apart here.

Experiments:
[1] = test system: GSK-3α (Tyr276) / GSK-3β (Tyr216); assay: Tyrosine phosphorylation of GSK-3 in SH-SY5Y cells (Western blot); type: cell-based, human; settings: 1 μM, 12 hr
Excerpt: GSK-3α and GSK-3β activity is enhanced by the phosphorylation of a specific tyrosine residue (Tyr276 and Tyr216, respectively) (Hughes et al. (1993) EMBO J. 12: 803-808; Dajani et al. (2003) EMBO J. 22: 494-501). The tyrosine kinase responsible for this phosphorylation in mammals is unknown, but there is some evidence that it indirectly depends on GSK-3 activity (Bhat et al. (2000) Proc. Natl. Acad. Sci. U.S.A. 97: 11074-11079; Shaw et al. (1997) FEBS Lett. 416: 307-311). […] SH-SY5Y cells were exposed to IO, MeIO, BIO and MeBIO for 12 hr and the phosphorylation of Tyr276 (GSK-3α) and Tyr216 (GSK-3β) was estimated by Western blotting with phospho-specific antibodies. […] This was accompanied by an increased level in total GSK-3β, total β-catenin, and dephospho-&catenin.

[2] = test system: Xenopus laevis embryos; assay: Maternal Wnt pathway activation in Xenopus laevis embryos (phenotype, RT-PCR of animal caps); type: in vivo; settings: for embryo phenotype (anteriorization): BIO 5-50 μM, MeBIO 50 μM, LiCl 0.3 M, treated before stage 8, tadpole stage
Description: Xenopus laevis embryos obtained by in vitro fertilization were cultured in 0.1×MMR and staged (Nieuwkoop & Faber (1967) Normal table of Xenopus Laevis (North Holland Publishing Co, Amsterdam, The Netherlands)). […] For experiments with BIO, the reagent was added to the indicated final concentrations at the 4 cell stage and washed away at stage 8. Embryos were subsequently allowed to develop to tadpole stage. RNA injections were performed at 2-4 cell stage with the indicated amounts of in vitro transcribed RNA in a […] volume. Animal caps were dissected at blastula (stage 9) and cultured to neurula (stage 18) for RT-PCR analysis-. The RNA expression vectors were pCS2+DN Xtcf-3, encoding amino acids 88-553 of Xtcf-3 (Vonica et al. (2000) Dev. Biol. 217: 230-243), MTPA2 (Zeng et al. […] RT-PCR was performed as previously described (Chang et al. (1997) Development 124: 827-837), with the following oligonucleotides: for ODC sense [NT] and antisense 5° [NT] 3'; for nrp1 sense [NT] and antisense [NT]; for XAG1 sense [NT] and antisense 5° [NT] 3'; for en2 sense 5° [NT] 3' and antisense [NT]; for Xhoxb9 sense [NT] and antisense [NT]; for chordin sense 5° [NT] 3' and antisense [NT]. Phenotypes of embryos treated with BIO or LiCl were compared (FIG. 8B-G). […] The Wnt pathway can ectopically induce dorsal genes, like the direct Wnt target siamois ([…] et al. (1996) Development 122: 3055-3065), and the Spemann organizer marker and siamois target chordin (Kessler (1997) Proc. Natl. Acad. Sci. U.S.A. 94: 13017-22). […] Another outcome of ectopic Wnt pathway activation in Xenopus is the indirect induction of neural tissue in animal cap explants (Baker et al. (1999) Genes Dev. 13: 3149-3159). Explants from embryos treated with LiCl (FIG. 8I, lanes 4, 5), BIO (lanes 6, 7), or injected with RNA for the neuralizing factor noggin (lane 3), were compared by RT-PCR for various neural and anterior markers.

[3] = test system: AhR; assay: AhR nuclear translocation in Hepa-1 and ARNT mutant cells (immunofluorescence); type: cell-based, mouse; settings: 25 μM, 90 min, Hepa-1 wild-type and ARNT mutant cells
[4] = test system: 5L (AhR +/+) hepatoma cells; assay: Cell viability MTT assay, 5L cells; type: cell-based, mouse; settings: range of concentrations, 24 and 48 hr
[5] = test system: BP8 (AhR −/−) hepatoma cells; assay: Cell viability MTT assay, BP8 cells; type: cell-based, mouse; settings: range of concentrations, 24 and 48 hr
[6] = test system: 5L (AhR +/+) hepatoma cells; assay: FACS cell cycle analysis, 5L cells; type: cell-based, mouse; settings: 10 μM indirubins or 100 nM TCDD, 24 hr
[7] = test system: p27^KIP1 in 5L (AhR +/+) cells; assay: p27KIP1 expression by Western blotting, 5L cells; type: cell-based, mouse; settings: 10 μM indirubins or 0.1 μM TCDD, 24 hr
[8] = Solubility (qualitative remark); settings: relative to parent indirubins / 3′-oximes
[9] = test system: GSK-3; assay: β-catenin phosphorylation on GSK-3 specific sites in COS-1 cells (Western blot); settings: 5 μM indirubins or 20 mM LiCl, 24 hrs
[10] = test system: GSK-3; assay: β-catenin stabilization in AhR- or ARNT-deficient Hepa cell lines (Western blot); settings: 10 μM BIO, 50 μM MeBIO, 24 hrs
[11] = target: GSK-3α/β; assay: GSK-3α/β kinase assay (GS-1 peptide, 15 μM ATP); type: biochemical, porcine
[12] = target: CDK1/cyclin B; assay: CDK1/cyclin B kinase assay (histone H1, 15 μM ATP); type: biochemical, starfish (Marthasterias glacialis)
[13] = target: CDK5/p25 (Homo sapiens, UniProt Q00535); assay: CDK5/p25 kinase assay (histone H1, 15 μM ATP); type: biochemical, mammalian; settings: read-out: IC50 CDK5/p25
CDK5/p25, sequence (Q00535 whole entry, species assumed): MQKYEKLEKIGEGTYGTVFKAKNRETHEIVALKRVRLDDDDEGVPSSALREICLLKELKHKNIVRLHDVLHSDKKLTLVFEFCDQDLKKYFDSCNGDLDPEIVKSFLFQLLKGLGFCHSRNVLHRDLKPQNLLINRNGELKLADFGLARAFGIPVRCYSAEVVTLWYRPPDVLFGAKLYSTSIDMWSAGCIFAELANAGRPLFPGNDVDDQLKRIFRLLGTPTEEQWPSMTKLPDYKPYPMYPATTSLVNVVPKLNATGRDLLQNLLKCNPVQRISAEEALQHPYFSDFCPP
CDK5/p25, sequence (Q15078 99-307 partner limits assumed, species assumed): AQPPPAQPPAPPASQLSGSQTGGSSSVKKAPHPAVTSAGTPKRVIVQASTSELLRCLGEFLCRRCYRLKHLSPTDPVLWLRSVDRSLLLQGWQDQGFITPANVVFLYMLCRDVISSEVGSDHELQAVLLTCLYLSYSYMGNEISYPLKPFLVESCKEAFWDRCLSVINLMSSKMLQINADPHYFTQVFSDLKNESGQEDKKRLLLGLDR

[14] = test system: BP8 (AhR −/−) hepatoma cells; assay: FACS cell cycle analysis, BP8 cells; type: cell-based, mouse; settings: 10 μM indirubins or 100 nM TCDD, 24 hr
Description: Flow cytometry analysis (Coulter EPIX XL2, Beckman, Calif., USA) of cellular DNA content was performed on ethanol-fixed cell suspensions after ribonuclease A III treatment (Sigma) and propidium iodide (Sigma) staining, as previously described (French et al. (1985) Cytometry 6: 47-53). Percentages of cells in G0/G1, S and G2/M phases of cell cycle were then calculated on the basis of DNA distribution histograms provided by the software manufacturer.
Both 5L and BP8 cell lines were treated with 10 μM IO, MeIO, BIO, MeBIO or 100 nM TCDD for 24 hr.

[15] = target: T1, AhR (Homo sapiens, UniProt P35869)
T1 sequence (P35869 11-848): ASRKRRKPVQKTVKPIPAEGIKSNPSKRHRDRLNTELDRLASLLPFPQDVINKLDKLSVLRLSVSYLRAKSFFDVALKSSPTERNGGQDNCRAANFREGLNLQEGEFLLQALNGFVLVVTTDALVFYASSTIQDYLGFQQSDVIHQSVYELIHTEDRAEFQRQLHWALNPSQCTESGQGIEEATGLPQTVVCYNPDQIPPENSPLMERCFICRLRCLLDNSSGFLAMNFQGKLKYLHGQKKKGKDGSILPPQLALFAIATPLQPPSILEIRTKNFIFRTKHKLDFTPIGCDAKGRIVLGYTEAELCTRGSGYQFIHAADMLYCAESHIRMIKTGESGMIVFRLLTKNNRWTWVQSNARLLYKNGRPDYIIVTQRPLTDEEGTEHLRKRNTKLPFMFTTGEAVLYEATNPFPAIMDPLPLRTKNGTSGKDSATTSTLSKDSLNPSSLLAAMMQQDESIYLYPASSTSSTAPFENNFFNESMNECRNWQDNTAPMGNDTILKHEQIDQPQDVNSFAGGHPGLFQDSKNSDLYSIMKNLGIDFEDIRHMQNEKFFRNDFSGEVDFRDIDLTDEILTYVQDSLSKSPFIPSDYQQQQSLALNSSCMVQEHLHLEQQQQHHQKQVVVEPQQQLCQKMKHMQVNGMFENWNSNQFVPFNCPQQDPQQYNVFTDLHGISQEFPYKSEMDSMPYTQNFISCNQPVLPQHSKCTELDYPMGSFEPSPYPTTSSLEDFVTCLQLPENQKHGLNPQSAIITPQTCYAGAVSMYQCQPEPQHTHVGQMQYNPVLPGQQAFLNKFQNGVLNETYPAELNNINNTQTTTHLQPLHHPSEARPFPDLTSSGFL
T1 sequence (P27540 whole entry partner): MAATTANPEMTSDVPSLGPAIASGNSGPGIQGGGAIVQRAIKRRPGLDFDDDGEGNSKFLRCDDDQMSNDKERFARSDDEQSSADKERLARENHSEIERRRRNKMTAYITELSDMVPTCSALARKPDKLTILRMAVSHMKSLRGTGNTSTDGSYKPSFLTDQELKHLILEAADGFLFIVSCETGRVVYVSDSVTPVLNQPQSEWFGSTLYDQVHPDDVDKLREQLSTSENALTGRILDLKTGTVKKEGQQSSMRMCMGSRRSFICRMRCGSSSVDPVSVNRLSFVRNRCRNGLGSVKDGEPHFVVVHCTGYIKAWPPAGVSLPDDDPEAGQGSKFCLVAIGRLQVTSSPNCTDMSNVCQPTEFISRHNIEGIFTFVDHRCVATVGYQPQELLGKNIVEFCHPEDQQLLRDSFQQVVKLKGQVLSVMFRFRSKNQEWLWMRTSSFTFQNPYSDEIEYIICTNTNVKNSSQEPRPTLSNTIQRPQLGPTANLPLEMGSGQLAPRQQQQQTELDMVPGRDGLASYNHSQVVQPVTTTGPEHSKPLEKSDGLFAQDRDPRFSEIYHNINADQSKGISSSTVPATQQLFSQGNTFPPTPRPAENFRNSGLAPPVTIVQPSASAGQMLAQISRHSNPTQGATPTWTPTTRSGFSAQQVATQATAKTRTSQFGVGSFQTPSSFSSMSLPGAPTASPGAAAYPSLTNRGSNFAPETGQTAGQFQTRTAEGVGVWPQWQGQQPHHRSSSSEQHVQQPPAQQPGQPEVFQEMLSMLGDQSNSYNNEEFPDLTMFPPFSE

[16] = target: T2, AhR (Mus musculus, UniProt P30561); settings: read-out: EC50 AhR (hepatoma cell line); Table 4; EGFP at 24 hours
T2 sequence (P30561 1-848): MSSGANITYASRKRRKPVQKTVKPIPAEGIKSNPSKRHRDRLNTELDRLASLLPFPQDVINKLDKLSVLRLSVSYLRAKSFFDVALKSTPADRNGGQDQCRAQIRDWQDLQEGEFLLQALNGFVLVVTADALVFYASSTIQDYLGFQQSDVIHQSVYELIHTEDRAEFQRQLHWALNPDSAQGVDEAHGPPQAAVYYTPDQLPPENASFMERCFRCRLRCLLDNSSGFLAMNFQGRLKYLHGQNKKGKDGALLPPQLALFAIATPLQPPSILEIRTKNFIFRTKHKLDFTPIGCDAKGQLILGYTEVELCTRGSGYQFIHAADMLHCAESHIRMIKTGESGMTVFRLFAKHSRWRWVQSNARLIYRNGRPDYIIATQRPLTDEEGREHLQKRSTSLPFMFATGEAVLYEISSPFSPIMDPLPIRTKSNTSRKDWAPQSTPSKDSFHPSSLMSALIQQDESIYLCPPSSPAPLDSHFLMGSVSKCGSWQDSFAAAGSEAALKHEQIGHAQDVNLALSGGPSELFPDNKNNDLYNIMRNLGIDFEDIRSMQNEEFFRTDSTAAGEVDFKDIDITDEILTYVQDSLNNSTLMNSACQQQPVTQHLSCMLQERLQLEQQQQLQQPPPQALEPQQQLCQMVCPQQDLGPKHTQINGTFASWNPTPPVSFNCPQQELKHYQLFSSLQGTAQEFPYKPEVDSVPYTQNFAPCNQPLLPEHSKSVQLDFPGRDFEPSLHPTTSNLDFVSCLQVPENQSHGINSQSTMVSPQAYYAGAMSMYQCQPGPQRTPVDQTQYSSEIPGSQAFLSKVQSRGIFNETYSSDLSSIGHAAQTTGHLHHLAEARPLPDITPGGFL

[17] = target: CDK5/p35 (Homo sapiens, UniProt Q00535); design: made in house; settings: Hoessel et al. (1999); cited from earlier work
CDK5/p35, sequence (Q00535 whole entry, species assumed): as the sequence (Q00535 whole entry, species assumed) above
CDK5/p35, sequence (Q15078 whole entry partner, species assumed): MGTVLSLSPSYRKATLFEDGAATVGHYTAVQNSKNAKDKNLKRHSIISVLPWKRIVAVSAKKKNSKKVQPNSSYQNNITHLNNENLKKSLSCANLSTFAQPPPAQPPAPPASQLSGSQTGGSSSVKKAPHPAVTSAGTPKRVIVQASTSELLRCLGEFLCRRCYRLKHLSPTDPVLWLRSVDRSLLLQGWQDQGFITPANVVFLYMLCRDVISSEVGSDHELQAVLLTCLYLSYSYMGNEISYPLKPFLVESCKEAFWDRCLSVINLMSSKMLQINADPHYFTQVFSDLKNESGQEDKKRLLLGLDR

[18] = target: T1, AhR; assay: Yeast AhR reporter assay (β-galactosidase)
[19] = Table 1, read-out: IC50 GSK-3 α/β
[20] = Table 5, read-out: IC50 GSK-3α/β
[21] = Table 7, GSK-3, read-out: IC50exp
[22] = Table 5, read-out: IC50 CDK1/cyclin B
[23] = Table 4, read-out: IC50 CDK1/cycin B

SMILES | nuclear translocation of AhR [3] | accumulation of 5L cells in G1 phase [6] | p27^KIP1 expression in 5L cells [7] | pIC50 [11, 21] | pIC50 ([11]; Table 4, read-out: IC50 GSK-3) | pIC50 [12, 23] | pEC50 [15] | pEC50 [16] | further results
O=C1Nc2cc(Br)ccc2/C1=C1/Nc2ccccc2/C1=N\O [7a] | triggered ARNT-independent nuclear redistribution of AhR | modest (but detectable) | modest, but detectable increase | – | – | – | – | – | level of tyrosine phosphorylation of both GSK-3 isoforms [1]: dramatically reduced; embryo phenotype (anteriorization) [2]: phenocopies the LiCl effect in a dose-dependent manner; induction of siamois and chordin in animal cap explants (RT-PCR) ([2]; Li+ 0.3 M, BIO 50 μM): shows induction of both genes; effect on anterior markers otx2 and xag1 in animal cap explants (RT-PCR) ([2]; even at the lowest concentration tested (5 μM)): strongest effect on anterior markers; survival of 5L cells (MTT) [4]: equally sensitive to IO and BIO; survival of BP8 cells (MTT) [5]: equally sensitive to IO and BIO; solubility (in words) [8]: increased solubility; unphosphorylated β-catenin level [9]: major increase; β-catenin stabilization [10]: triggered a robust β-catenin stabilization in both cell lines
O=C1Nc2cc(Br)ccc2C1=C1Nc2cc(Br)ccc2C1=NO [13b, 6,6′-dibromo-indirubin-3′-oxime] | – | – | – | 6.92 | – | – | – | – | pIC50 [11, 19]: 6.92; pIC50 [11, 20]: 6.92; pIC50 ([12]; Table 1, read-out: IC50 CDK1/cyclin B): 4.77; pIC50 [12, 22]: 4.77; pIC50 ([13]; Table 1): 5.89; pIC50 ([13]; Table 5): 5.89; solubility (in words) [8]: increased solubility
CN1C(=O)C(=C2Nc3ccccc3C2=NO)c2ccc(Br)cc21 [13c, 6-Bromo-1-methylindirubin-3′-oxime] | caused redistribution of AhR to the nucleus | very striking accumulation | very effective p27^KIP1 inducers | – | 4.36 | 4.04 | 7.70 | 7.03 | pIC50 [11, 19]: 4.36; pIC50 [11, 20]: < 4.00; pIC50 [12, 22]: 4.04; pIC50 ([13]; Table 1): < 4.00; pIC50 ([13]; Table 5): < 4.00; level of tyrosine phosphorylation of both GSK-3 isoforms [1]: None of these changes were observed; embryo phenotype (anteriorization) [2]: remains without effect; survival of 5L cells (MTT) [4]: apparently not affected; survival of BP8 cells (MTT) [5]: apparently not affected; accumulation of BP8 cells in G1 phase [14]: but not of AhR −/− cells (BP8); unphosphorylated β-catenin level [9]: neither the kinase-inactive MeBIO nor IO, led to a major increase; β-catenin stabilization [10]: inactive
O=C1Nc2ccc(S(=O)(=O)O)cc2/C1=C1/Nc2ccccc2C1=O [I5S, indirubin-5-sulphonate] | – | – | – | – | – | – | – | – | pIC50 [17]: 7.22
O=C1Nc2ccc(Br)cc2/C1=C1/Nc2ccccc2C1=O [compound 16, 5-bromo-indirubin, reference compound] | – | – | – | 7.26 | 7.26 | 6.64 | 7.46 | 8.15 | –
O=C1Nc2ccc(Cl)cc2/C1=C1/Nc2ccccc2C1=O [compound 17, 5-chloro-indirubin, reference compound] | – | – | – | 7.30 | 7.30 | 6.55 | 7.40 | 7.28 | –
O=C1Nc2ccc(I)cc2/C1=C1/Nc2ccccc2/C1=N\O [compound 19, 5-iodo-indirubin-3′-oxime, reference compound] | triggered ARNT-independent nuclear redistribution of AhR | – | – | – | – | 7.60 | 7.30 | 8.30 | –
O=C1Nc2ccccc2/C1=C1/Nc2ccc(Br)cc2C1=O [compound 20, 5′-bromo-indirubin, reference compound] | – | – | – | 6.46 | 6.46 | 6.29 | ≤ 7.00 | 7.29 | –
O=C1Nc2ccc(Br)cc2/C1=C1/Nc2ccc(Br)cc2C1=O [compound 21, 5,5′-dibromo-indirubin, reference compound] | – | – | – | 6.60 | 6.60 | 3.22 | < 6.70 | 7.33 | –
Clc1cc2c(cc1Cl)Oc1cc(Cl)c(Cl)cc1O2 [compound 25, 2,3,7,8-tetrachlorodibenzo-p-dioxin, reference compound] | – | triggered an AhR-dependent arrest in G1 | up-regulates the expression of both CYP1A1 and p27^KIP1 in the 5L | – | < 4.82 | < 4.82 | – | 10.82 | pEC50 [18]: 7.60
